Square brackets hold non-standard residues; d marks the D form. Peptide text beside a SMILES is read from it. * marks the point of attachment. Nle = CCCC[C@H](N)C(=O)O; Cbz = O=C(OCc1ccccc1)*; CH2F = FC*
Key:
Assay type in all cases: cell-based
[1] = test system: NF-kB DNA binding activity; assay: Electromobility shift assay for NF-kB DNA binding activity in rat hepatic stellate cells; conditions: activated rat HSC; for TNF-α-inducible NF-kB DNA binding activity: 10 ng/mL TNF-α, same concentrations as for constitutive activity; for constitutive NF-kB DNA binding activity: gliotoxin 1.5 μmol/L, N-acetyl cysteine 5 mM, calpain inhibitor 1 50 μM, dexamethasone 0.5 μm, pentoxyfilline 3.6 mM
Description: Crude high salt extractable nuclear protein was prepared from activated hepatic stellate cells for analysis of NF-kB DNA binding activity essentially as described (Elsharkawy et al., supra), aliquoted and stored at −80° C. until required. Extract protein concentrations were determined using the Lowry colorimetric assay (Lowry et al., supra) with bovine serum albumin as standard. A double stranded 5′ end labeled radiolabeled oligonucleotide [sense 5′-[…]-[…] (SEQ ID NO:1)] containing a consensus NF-kB DNA binding site as underlined (Baldwin et al., Annu. Rev. Immunol., (1996) 14:649-681) was used to determine NFkB DNA binding activity in crude nuclear extracts (Elsharkawy et al., supra).
The effect of gliotoxin on NF-kB activity in hepatic stellate cells was investigated. Culture-activated (14-day) rat hepatic stellate cells were incubated in the presence or absence of 10 ng/mL TNF-α fifteen minutes after addition of:
After a further 30 minutes, and before any significant morphologic changes, cells were washed with ice-cooled PBS, nuclear extracts prepared, and NF-kB DNA binding activity assessed by gel shift analysis. […] Each lane contained […] of protein and the results were the same for at least three separate experiments.

[2] = test system: rat hepatic stellate cells; assay: Morphology and detachment of culture-activated rat hepatic stellate cells (light microscopy); conditions: rat HSC; for effect on morphologic alterations / detachment caused by gliotoxin: with 1.5 μmol/L gliotoxin, Z-VAD-FMK 100 μmol/L, PDTC 300 μmol/L, tamoxifen 100 μmol/L, m-IBG 250 (mmol/L in the source), quin-2-am 50 μmol/L
Description: Rat hepatic stellate cells (HSCs) were isolated by pronase/collagenase perfusion and purified by isopycnic density centrifugation in Opti-prep™ (Nycomed, Amersham, England) and elutriation essentially as previously described (Bahr et al., Hepatology (1999) 29:839-848). Human hepatic stellate cells were isolated from discarded resected liver via a similar protocol (Trim et al., J. Biol. Chem., (2000) 275:6657-6663). The use of human liver tissue for scientific investigation was approved by the UK South and West Local Research Ethics Committee and was subject to patient consent.
It has been shown recently that liver myofibroblasts may contribute to liver fibrogenesis and that liver myofibroblasts may have the potential to contaminate passaged hepatic stellate cell cultures (Knittel et al., Gastronenterology, (1999) 117:1205-1221). In this study, only primary cultures of hepatic stellate cells were used, which were desmin and glial fibrillary acid protein positive (markers shown to be expressed in hepatic stellate cells, but not liver myofibroblasts—Knittel et al., supra).
(§1) Cells were treated with gliotoxin dissolved in DMSO vehicle (added to medium from a 2000-fold molar concentrated stock). Control cells received DMSO vehicle only (i.e., 0.05% vol/vol). All other additions to culture medium were made from concentrated stocks dissolved in DMSO or by direct addition to culture medium. Protein contents of wells were determined using the Lowry assay (Lowry et al., J. Biol. Chem., (1951)193: 265-275).
Culture activated rat (14 day) and human (24 day) hepatic stellate cells were treated with DMSO solvent control or 1.5 μMol/L gliotoxin. […] Hepatic stellate cells changed from a flattened fibroblastic phenotype with distinct cell-cell interfaces to a substratum detached, rounded, and blebbed morphology.

[3] = test system: caspase 3 activity in rat hepatic stellate cells; assay: Caspase 3 (Ac-DEVD-pNA cleavage) activity in rat hepatic stellate cells; conditions: 20 μmol/L Z-VAD-FMK with 1.5 μmol/L gliotoxin, three hours
Description: Hepatic stellate cells cultured in 100 mm diameter dishes (Greiner, Frickenhausen, Germany) were harvested and pelleted by centrifugation. The medium supernatant was discarded and the cell pellet was washed in 1 mL of ice-cooled phosphate buffered saline (PBS). Caspase 3 (DEVDase) activity was determined using a colorimetric CaspACE kit (Promega, Southampton, England) using the manufacturer's instructions.
Caspase 3 (Ac-DEVD-pNA cleavage) activity was then examined in control and gliotoxin-treated hepatic stellate cells. Culture activated rat hepatic stellate cells (14 days) in 100 mm diameter plates were treated with 0.05% (vol/vol) DMSO, 1.5 μmol/L gliotoxin, 20 μmol/L Z-VAD-FMK or 200 μmol/L chlorpromazine for three hours. The cells were then harvested for examination of caspase 3 activity as outlined in the materials and methods sections.

[4] = test system: rat hepatic stellate cells; assay: Low molecular weight DNA fragmentation (nucleosomal ladder) in rat hepatic stellate cells; conditions: four hours; for effect on gliotoxin-induced cleavage of DNA to a nucleosomal ladder: with 1.5 μmol/L gliotoxin, PDTC 300 μmol/L, tamoxifen 100 μmol/L, m-IBG 250 (mmol/L in the source), cyclosporin 10 μmol/L, quin-2-am 50 μmol/L
Description: (§2) Hepatic stellate cells cultured in 35-mm diameter dishes (Greiner) were harvested, pelleted by centrifugation and DNA fragmentation determined as outlined elsewhere (Elsharkawy et al., Hepatology (1999) 30:761-769). Propidium Iodide Flow-Activated Cell Sorting Analysis Detached cells were pelleted by centrifugation, washed in PBS, and resuspended in HYPO buffer (0.1% wt/vol) Na3Citrate and 0.1% (wt/vol) Triton™ X-100 containing […] propidium iodide and incubated for 1 hour. The cells were then analyzed by fluorescence-activated cell sorter (FACS) with a Becton Dickinson (San Jose, Calif.) FACScan instrument using a 488 nm excitation wavelength with a band pass filter set at 530 nm. Attached cells were scraped in HYPO buffer after washing cells with PBS.
The effect of gliotoxin on the cleavage of DNA to a nucleosomal ladder was examined because this phenomenon is characteristic of apoptosis. Culture activated (14-day) rat hepatic stellate cells in six well plates were treated with either 0.05% (vol/vol) DMSO for four hours or 1.5 μmol/L gliotoxin for zero hours, half an hour, one hour, two hours or four hours. At each time point, both detached and attached cells were harvested together and low molecular weight DNA (20,000 g supernatant) fragmentation determined as outlined in the materials and methods section. At least three separate experiments were performed. 1 kilobase DNA ladder (Promega) was used as a molecular weight marker.
The effect of various compounds on DNA laddering was then determined. Culture-activated (14-day) rat hepatic stellate cells in six-well plates were treated with:
After fours hours of treatment, DNA fragmentation was determined.
Culture activated (14 day) rat hepatic stellate cells in six well plates were treated with: • (a) 0.05% (vol/vol) DMSO; • (b) 1.5 μmol/L gliotoxin; • (c) 1.5 μmol/L gliotoxin with 100 μmol/L tamoxifen; • (d) 1.5 μmol/L gliotoxin with […] actinomycin d; • (e) 1.5 μmol/L gliotoxin with 10 μmol/L cycloheximide; • (f) 1.5 μmol/L gliotoxin with 10 μmol/L cyclosporin; • (g) 1.5 μmol/L gliotoxin with […] m-iodobenzylguanidine; • (h) 1.5 μmol/L gliotoxin with 50 μmol/L quin-2-am; • (i) 50 μmol/L guin-2-am alone; • (j) 250 μmol/L m-iodobenzylguanidine; • (k) 10 μmol/L cyclosporin; • (l) 10 μmol/L cycloheximide; • (m) 1 μg/ml actinomycin d; or • (n) 100 μmol/L tamoxifen.
After four hours of treatment, DNA fragmentation was determined as outlined in Materials and Methods.

rat hepatocytes [5] = assay: DNA laddering in rat hepatocytes; conditions: four hours; 50 μmol/L gliotoxin, 200 μmol/L chlorpromazine, 200 μmol/L methapyrilene, 10 ng/mL TNF-α with cycloheximide
Description: as §2
DNA laddering was also used to compare the effect of gliotoxin, chlorpromazine, methapyrilene and also the combination of TNF-α with cycloheximide on hepatocytes and hepatic stellate cells.

rat hepatocytes [6] = assay: Rat hepatocyte viability by attachment and trypan blue exclusion; conditions: 200 μmol/L, four hours
Description: Rat hepatocytes were isolated by collagenase perfusion essentially as previously described. (Harvey et al., Biochemical J., (1998) 331:273-281). Hepatocytes were cultured as outlined for hepatic stellate cells except that they were initially seeded onto collagen coated plates in William's medium E supplemented with 10% fetal calf serum and 1 μg/mL insulin for the first 2 hours.
as §1
The effect of various compounds on cell viability and attachment was determined. Viability of rat hepatocytes as judged by attachment and 0.1% (wt/vol) trypan blue exclusion after four hours treatment with: […]

Compound	TNF-α-inducible NF-kB DNA binding activity [1]	constitutive NF-kB DNA binding activity [1]	effect on morphologic alterations / detachment caused by gliotoxin [2]	effect on gliotoxin-induced cleavage of DNA to a nucleosomal ladder [4]	further results
CCCC[C@@H](C=O)NC(=O)[C@H](CC(C)C)NC(=O)[C@H](CC(C)C)NC(C)=O [Calpain inhibitor 1] (Ac-Leu-Leu-[Nle]-aldehyde)	inhibited the formation and altered the mobilities	inhibited the formation and altered the mobilities	–	–	apoptosis judged by morphologic and biochemical criteria (caspase 3 induction, nucleosomal ladder) ([2]; 50 μM calpain inhibitor 1): did not result in the apoptosis of rat hepatic stellate cells
CC(=O)N[C@@H](CS)C(=O)O [N-acetyl cysteine]	little effect	little effect	–	–	–
COC(=O)C[C@H](NC(=O)[C@H](C)NC(=O)[C@@H](NC(=O)OCc1ccccc1)C(C)C)C(=O)CF [Z-VAD-FMK, benzyloxycarbonyl-Val-Ala-Asp-fluoromethylketone] (Cbz-Val-Ala-Asp(OMe)-CH2F)	–	–	did not prevent the morphologic alterations caused by gliotoxin	–	effect on gliotoxin-induced caspase 3 activity [3]: inhibited by cotreatment; inhibition of gliotoxin-induced nucleosomal ladder ([4]; Z-VAD-FMK 1 μmol/L with 1.5 μmol/L gliotoxin): substantial inhibition; inhibition of gliotoxin-induced nucleosomal ladder ([4]; Z-VAD-FMK 100 and 10 (m/L printed) with 1.5 μmol/L gliotoxin): inhibited completely
N=C(N)NCc1cccc(I)c1 [m-iodobenzylguanidine]	–	–	did not prevent the detachment of hepatic stellate cells from the substratum	prevented the cleavage of DNA to a nucleosomal ladder	–
CN(C)CCN(Cc1cccs1)c1ccccn1 [methapyrilene]	–	–	–	–	cleavage of hepatocyte DNA to a nucleosomal ladder (rat hepatocytes [5]): only hepatocytes treated with TNF-α and cycloheximide cleaved their DNA to a nucleosomal ladder; hepatocytes that do not exclude trypan blue, compared with 50 μmol/L gliotoxin (rat hepatocytes [6]): a level similar
CC(=O)CCCCn1c(=O)c2c(ncn2C)n(C)c1=O [pentoxyfilline]	little effect	little effect	–	–	–
COc1cc(N(CC(=O)OCOC(C)=O)CC(=O)OCOC(C)=O)c2nc(COc3cc(C)ccc3N(CC(=O)OCOC(C)=O)CC(=O)OCOC(C)=O)ccc2c1 [quin-2AM]	–	–	without preventing cell detachment	blocks DNA cleavage	–
CC/C(=C(\c1ccccc1)c1ccc(OCCN(C)C)cc1)c1ccccc1 [tamoxifen]	–	–	did not prevent the detachment of hepatic stellate cells from the substratum	prevented the cleavage of DNA to a nucleosomal ladder	–

Source: patent publication US20080220056A1, “Treatment for liver disease” (UNIVERSITY OF SOUTHAMPTON, priority 2002, published 2008)
